Results published in patent US20200392107A1, “CYCLIC AMINE DERIVATIVE AND MEDICAL USE THEREOF” (Toray Industries, Inc., priority 2018, published 2020).

Legend:
[1] = tested on: imiquimod-induced mouse psoriasis model; experiment: Imiquimod-induced mouse psoriasis model; assay type: in vivo; settings: 10 mg/kg orally once daily for 5 days (3 to 7 days after induction); BALB/c mice; vs vehicle, P<0.05
Experimental: Using increase in the ear thickness as an index of exacerbation of symptoms, the effect of the cyclic amine derivative (I) or a pharmacologically acceptable salt thereof in an imiquimod-induced mouse psoriasis model was evaluated. The imiquimod-induced mouse psoriasis model was prepared by a partially modified method by Schaper et al. (The Journal of Dermatological Science, 2013, Vol. 71, No. 1, p. 29-36).
BALB/c mice (male, 7 weeks old) (Charles River Laboratories Japan, Inc.) were used at 8 to 9 weeks old after preliminary breeding. To induce psoriasis-like symptoms, 5 mg each of BESELNA CREAM 5% was applied once daily to the outside of the right and left auricles of the mice for 8 days from the day of first administration of imiquimod (hereinafter referred to as induction day) to 7 days after induction (dose of imiquimod, 0.5 mg/body/day).
(§1) A test compound at a dose of 10 mg/kg was administered to the mice once daily for 5 days from 3 days after induction to 7 days after induction. As the test compound, the compound of Example 1, the compound of Example 4, and the compound of Example 9 were used. The compound of Example 1, the compound of Example 4, and the compound of Example 9 were respectively suspended in a 0.5 w/v % methylcellulose solution and orally administered. The group in which the compound of Example 1 was administered to mice was defined as the Example-1 compound administration group, the group in which the compound of Example 4 was administered was defined as the Example-4 compound administration group, and the group in which the compound of Example 9 was administered was defined as the Example-9 compound administration group. In the vehicle administration group, a vehicle of each test compound (0.5 w/v % methylcellulose solution) was similarly administered.
The right and left ear thickness before administration of imiquimod (before induction) on the induction day and the right and left ear thickness on the 8th day after induction were measured with a digital micrometer (Mitutoyo Corporation). […]

[2] = tested on: DNFB-induced mouse allergic dermatitis model; experiment: DNFB-induced mouse allergic dermatitis model; assay type: in vivo; settings: 10 mg/kg orally one hour before induction; BALB/c mice; vs vehicle, P<0.05
Experimental: Using increase in the ear swelling rate as an index of exacerbation of symptoms, the effect of the cyclic amine derivative (I) or a pharmacologically acceptable salt thereof in a DNFB-induced mouse allergic dermatitis model was evaluated. The DNFB-induced mouse allergic dermatitis model was prepared by a partially modified method by Curzytek et al. (Pharmacological Reports, 2013, Vol. 65, p. 1237-1246).
BALB/c mice (female, 6 weeks old) (Charles River Laboratories Japan, Inc.) were used at 8 weeks old after preliminary breeding. To the back of the mice, 25 μL of a 0.5 v/v % DNFB solution dissolved in acetone:olive oil (4:1) was applied. The next day, the same operation was repeated to sensitize the mice. Four days after the sensitization, 10 μL each of a 0.2 v/v % DNFB solution dissolved in acetone:olive oil (4:1) was applied to both sides of the right auricle of the sensitized mice to induce inflammation.
as §1, with “One hour before induction, a test” for “A test”, “the mice.” for “the mice once daily for 5 days from 3 days after induction to 7 days after induction.”, “group. […]” for “group. In the vehicle administration group, a vehicle of each test compound (0.5 w/v % methylcellulose solution) was similarly administered.”
The right ear thickness before application of the DNFB solution (before induction) on the induction day and the right ear thickness at the 24th hour after induction were measured with a digital micrometer (Mitutoyo Corporation). The swelling rate of the auricle was calculated by Formula (3) and used as an index of the drug efficacy evaluation: […]

For CC(=O)N1CCCC[C@@H]1C(=O)Nc1cc(Cl)c2c(c1)CCN2Cc1ccc(C(F)(F)F)cc1 [Example 4, (R)-1-acetyl-N-(7-chloro-1-(4-(trifluoromethyl)benzyl)indolin-5-yl)piperidine-2-carboxamide], the “increase in the ear thickness (change in the ear thickness, 8th day after induction)” value [1] was “statistically significantly suppressed” and the “increase in the ear swelling rate (24th hour after induction)” value (“increase in the ear swelling rate” below) [2] was “statistically significantly suppressed”.
CC(=O)N1CCCC[C@@H]1C(=O)Nc1cc(Cl)c2c(c1)CCN2C[C@H]1CC[C@H](C(F)(F)F)CC1 [Example 9, (R)-1-acetyl-N-(7-chloro-1-((trans-4-(trifluoromethyl)cyclo-hexyl)methyl)indolin-5-yl)piperidine-2-carboxamide] was tested, and the “increase in the ear thickness (change in the ear thickness, 8th day after induction)” value [1] was “statistically significantly suppressed” and the “increase in the ear swelling rate” value [2] was “statistically significantly suppressed”.
For CC(=O)N1CCCC[C@@H]1C(=O)Nc1cc(Cl)c2c(c1)CCCN2Cc1ccc(C(F)(F)F)cc1 [Example 1, (R)-1-acetyl-N-(8-chloro-1-(4-(trifluoromethyl)benzyl)-1,2,3,4-tetrahydroquinolin-6-yl)piperidine-2-carboxamide], the “increase in the ear thickness (change in the ear thickness, 8th day after induction)” value [1] was “statistically significantly suppressed” and the “increase in the ear swelling rate” value [2] was “statistically significantly suppressed”.
